Measured values as given in publication PMC8508710, “Biochemical Characterization of 13-Lipoxygenases of Arabidopsis thaliana” (International Journal of Molecular Sciences, 2021).
Where “and” joins values, the source holds several entries; their conditions need not be identical. Equal entries are not always repeated.

Experiments:
LOX2 [1] = target: T1, LOX2 (Arabidopsis thaliana, UniProt P38418); experiment: LOX2 activity, spectrophotometric (conjugated diene formation at 234 nm); details: for Relative Activity (%) LOX2: substrate specificity, 31 µM PUFA, 4 µg 13-LOX, LeA = 100%
T1 sequence (P38418 71-896): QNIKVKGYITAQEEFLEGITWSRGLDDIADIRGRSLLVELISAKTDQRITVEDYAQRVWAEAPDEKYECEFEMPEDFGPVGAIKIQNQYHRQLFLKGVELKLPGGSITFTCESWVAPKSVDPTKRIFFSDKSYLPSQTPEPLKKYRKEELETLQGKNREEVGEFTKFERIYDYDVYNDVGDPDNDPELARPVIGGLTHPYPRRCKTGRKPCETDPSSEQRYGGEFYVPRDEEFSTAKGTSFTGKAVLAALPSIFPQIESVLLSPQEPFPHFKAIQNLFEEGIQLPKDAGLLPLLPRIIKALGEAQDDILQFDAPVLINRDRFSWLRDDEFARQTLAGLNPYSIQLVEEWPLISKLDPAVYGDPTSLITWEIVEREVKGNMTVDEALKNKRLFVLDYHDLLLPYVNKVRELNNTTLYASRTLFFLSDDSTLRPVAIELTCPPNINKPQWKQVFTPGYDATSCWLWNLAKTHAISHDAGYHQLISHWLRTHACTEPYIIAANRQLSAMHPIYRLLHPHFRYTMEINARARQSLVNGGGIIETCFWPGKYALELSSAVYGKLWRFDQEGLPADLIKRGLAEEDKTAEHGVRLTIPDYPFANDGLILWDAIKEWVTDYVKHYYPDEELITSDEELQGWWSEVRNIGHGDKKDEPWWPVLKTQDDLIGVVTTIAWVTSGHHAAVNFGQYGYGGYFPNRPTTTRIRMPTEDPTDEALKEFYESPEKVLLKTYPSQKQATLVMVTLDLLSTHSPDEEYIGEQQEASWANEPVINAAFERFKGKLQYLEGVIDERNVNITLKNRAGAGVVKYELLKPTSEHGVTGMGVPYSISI

LOX3 [2] = target: T2, LOX3 (Arabidopsis thaliana, UniProt Q9LNR3); experiment: LOX3 activity, spectrophotometric (conjugated diene formation at 234 nm); details: for Relative Activity (%) LOX3: substrate specificity, 31 µM PUFA, 4 µg 13-LOX, LeA = 100%
T2 sequence (Q9LNR3 71-919): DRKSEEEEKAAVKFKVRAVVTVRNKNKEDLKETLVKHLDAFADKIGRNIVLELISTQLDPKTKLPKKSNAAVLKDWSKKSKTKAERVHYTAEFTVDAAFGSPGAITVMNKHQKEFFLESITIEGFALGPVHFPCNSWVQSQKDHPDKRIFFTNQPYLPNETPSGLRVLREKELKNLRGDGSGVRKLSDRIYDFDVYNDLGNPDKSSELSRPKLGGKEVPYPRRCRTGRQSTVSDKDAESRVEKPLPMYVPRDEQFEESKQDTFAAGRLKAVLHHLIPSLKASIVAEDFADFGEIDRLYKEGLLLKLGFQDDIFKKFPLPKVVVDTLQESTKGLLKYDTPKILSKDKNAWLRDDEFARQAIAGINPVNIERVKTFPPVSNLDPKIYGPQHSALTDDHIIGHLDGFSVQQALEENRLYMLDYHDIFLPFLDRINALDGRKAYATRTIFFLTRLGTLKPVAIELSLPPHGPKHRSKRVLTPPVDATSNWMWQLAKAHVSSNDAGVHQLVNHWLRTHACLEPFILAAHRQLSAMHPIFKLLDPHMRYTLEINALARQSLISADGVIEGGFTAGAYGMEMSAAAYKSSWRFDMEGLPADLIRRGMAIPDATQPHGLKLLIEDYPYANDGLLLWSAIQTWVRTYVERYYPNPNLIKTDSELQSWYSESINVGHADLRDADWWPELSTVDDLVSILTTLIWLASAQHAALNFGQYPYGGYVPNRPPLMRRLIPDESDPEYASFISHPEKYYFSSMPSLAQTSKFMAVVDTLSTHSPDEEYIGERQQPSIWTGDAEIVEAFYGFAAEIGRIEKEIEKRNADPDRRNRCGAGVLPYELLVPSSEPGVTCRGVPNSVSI

LOX4 [3] = target: T3, LOX4 (Arabidopsis thaliana, UniProt Q9FNX8); experiment: LOX4 activity, spectrophotometric (conjugated diene formation at 234 nm); details: for Relative Activity (%) LOX4: substrate specificity, 31 µM PUFA, 4 µg 13-LOX, LeA = 100%
T3 sequence (Q9FNX8 71-926): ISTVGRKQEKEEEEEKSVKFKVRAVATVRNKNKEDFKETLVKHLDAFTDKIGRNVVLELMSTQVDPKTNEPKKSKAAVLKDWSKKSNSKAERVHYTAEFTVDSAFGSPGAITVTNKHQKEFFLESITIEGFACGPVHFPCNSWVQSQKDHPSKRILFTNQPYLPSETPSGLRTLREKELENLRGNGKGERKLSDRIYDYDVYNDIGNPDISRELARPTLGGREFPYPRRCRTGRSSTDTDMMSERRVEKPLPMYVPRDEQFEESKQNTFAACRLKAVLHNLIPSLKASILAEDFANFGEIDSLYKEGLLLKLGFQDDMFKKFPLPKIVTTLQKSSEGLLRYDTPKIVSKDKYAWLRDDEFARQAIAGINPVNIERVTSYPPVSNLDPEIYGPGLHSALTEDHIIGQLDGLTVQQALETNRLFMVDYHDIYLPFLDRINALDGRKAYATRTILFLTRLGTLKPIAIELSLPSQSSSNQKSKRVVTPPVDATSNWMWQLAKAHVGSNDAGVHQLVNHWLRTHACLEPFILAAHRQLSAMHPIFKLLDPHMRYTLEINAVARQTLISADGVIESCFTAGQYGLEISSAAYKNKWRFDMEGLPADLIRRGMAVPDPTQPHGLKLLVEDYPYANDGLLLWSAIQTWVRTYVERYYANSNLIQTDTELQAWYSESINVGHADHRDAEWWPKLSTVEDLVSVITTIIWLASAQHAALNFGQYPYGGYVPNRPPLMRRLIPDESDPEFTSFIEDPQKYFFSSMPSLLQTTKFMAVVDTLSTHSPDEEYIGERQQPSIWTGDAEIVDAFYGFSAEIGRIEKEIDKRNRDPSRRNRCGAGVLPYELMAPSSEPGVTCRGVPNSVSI

LOX6 [4] = target: T4, LOX6 (Arabidopsis thaliana, UniProt Q9CAG3); experiment: LOX6 activity, spectrophotometric (conjugated diene formation at 234 nm); details: for Relative Activity (%) LOX6: substrate specificity, 31 µM PUFA, 4 µg 13-LOX, LeA = 100%
T4 sequence (Q9CAG3 41-917): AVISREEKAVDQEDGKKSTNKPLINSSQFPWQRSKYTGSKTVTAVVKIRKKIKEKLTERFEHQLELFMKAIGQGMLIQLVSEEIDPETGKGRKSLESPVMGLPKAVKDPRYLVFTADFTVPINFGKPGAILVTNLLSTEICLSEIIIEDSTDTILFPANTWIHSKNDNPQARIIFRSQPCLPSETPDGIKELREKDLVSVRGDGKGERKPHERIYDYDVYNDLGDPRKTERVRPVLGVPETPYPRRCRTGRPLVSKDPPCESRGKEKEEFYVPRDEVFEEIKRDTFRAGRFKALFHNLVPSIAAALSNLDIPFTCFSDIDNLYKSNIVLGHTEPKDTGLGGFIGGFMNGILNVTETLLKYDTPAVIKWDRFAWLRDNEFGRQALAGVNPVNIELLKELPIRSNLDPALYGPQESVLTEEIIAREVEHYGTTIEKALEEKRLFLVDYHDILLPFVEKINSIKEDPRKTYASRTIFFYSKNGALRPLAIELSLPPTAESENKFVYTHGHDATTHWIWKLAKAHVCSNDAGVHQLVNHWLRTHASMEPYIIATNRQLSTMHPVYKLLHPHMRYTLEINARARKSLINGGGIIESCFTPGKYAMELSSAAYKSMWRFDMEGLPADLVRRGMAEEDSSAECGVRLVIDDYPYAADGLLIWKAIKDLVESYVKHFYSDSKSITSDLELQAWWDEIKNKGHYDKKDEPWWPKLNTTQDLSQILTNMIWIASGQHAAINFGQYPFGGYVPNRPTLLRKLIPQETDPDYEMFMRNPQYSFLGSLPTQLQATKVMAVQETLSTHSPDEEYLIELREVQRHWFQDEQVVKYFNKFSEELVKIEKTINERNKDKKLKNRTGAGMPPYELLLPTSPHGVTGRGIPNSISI

LOX2 [5] = target: T1, LOX2; experiment: LOX2 activity, oxygen electrode (polarography); type: biochemical; design: made in house; host or cells: E. coli Nico21(DE3), pET15b; details: 100 µM metal salt, LeA 30 µM in 20 mM HEPES pH 8.0, oxygen consumption vs control
LOX3 [6] = target: T2, LOX3; experiment: LOX3 activity, oxygen electrode (polarography); type: biochemical; design: made in house; host or cells: E. coli Nico21(DE3), pET15b; details: 100 µM metal salt, LeA 30 µM in 20 mM HEPES pH 8.0, oxygen consumption vs control
LOX4 [7] = target: T3, LOX4; experiment: LOX4 activity, oxygen electrode (polarography); type: biochemical; design: made in house; host or cells: E. coli Nico21(DE3), pET15b; details: for Relative Activity (%) LOX4: 100 µM metal salt, LeA 30 µM in 20 mM HEPES pH 8.0, oxygen consumption vs control; for Protective effect on LOX4 against 12-OPDA: 1.3 mM GSH, 140 µM 12-OPDA
LOX6 [8] = target: T4, LOX6; experiment: LOX6 activity, oxygen electrode (polarography); type: biochemical; design: made in house; host or cells: E. coli Nico21(DE3), pEXP5-NT/TOPO; details: 100 µM metal salt, LeA 30 µM in 20 mM HEPES pH 8.0, oxygen consumption vs control
LOX2 [9] = target: T1, LOX2; design: made in house; host or cells: E. coli Nico21(DE3), pET15b; method as in PMID 18949503; details: cited from earlier work
[10] = enzyme 0.225 µg/µL incubated 10 min 30 °C with 280 µM chemical, 4.8 µM LeA, 50 mM Tris-HCl pH 7.2, vs solvent control
[11] = read-out: Km app, substrate LeA, Michaelis Menten fit, apparent
[12] = read-out: Inhibition after pre-incubation with PUFA

CC/C=C\C/C=C\C/C=C\C/C=C\C/C=C\C/C=C\CCC(=O)O [DHA, docosahexaenoic acid]
Relative Activity (%) LOX2 (LOX2 [1]; 50 mM Tris-HCl pH 7.2): 56 ± 3%
Relative Activity (%) LOX3 (LOX3 [2]; 50 mM Tris-HCl pH 7.2): 7 ± 1%
Relative Activity (%) LOX4 (LOX4 [3]; 50 mM Tris-HCl pH 7.2): 8 ± 1%
Relative Activity (%) LOX6 (LOX6 [4]; 50 mM Tris-HCl pH 7.2): 31 ± 3%

[Cl][Cu][Cl] [CuCl2]
Relative Activity (%) LOX2 (LOX2 [5]): 50 ± 20%
Relative Activity (%) LOX2 (LOX2 [5]; listed as Cu^2+): strongly decreased
Relative Activity (%) LOX3 (LOX3 [6]): no activity
Relative Activity (%) LOX3 (LOX3 [6]; listed as Cu^2+): abolished
Relative Activity (%) LOX4 (LOX4 [7]): no activity
Relative Activity (%) LOX4 (LOX4 [7]; listed as Cu^2+): abolished
Relative Activity (%) LOX6 (LOX6 [8]): no activity
Relative Activity (%) LOX6 (LOX6 [8]; listed as Cu^2+): abolished

CCN1C(=O)C=CC1=O [NEM, N-ethylmaleimide]
Photometry Relative activity (%) LOX2 (LOX2 [1]; [10]): 35 ± 10%
Photometry Relative activity (%) LOX3 (LOX3 [2]; [10]): 29 ± 10%
Photometry Relative activity (%) LOX4 (LOX4 [3]; [10]): 3 ± 2%
Photometry Relative activity (%) LOX6 (LOX6 [4]; [10]): 13 ± 2%

CC/C=C\C/C=C\C/C=C\CCCCCCCC(=O)O [LeA, α-linolenic acid]
Maximum activity in pH profile (LOX2 [1]; LeA 9.8 µM, optimal pH 6.6): 3.9 ± 0.4 nmol·s^−1·mg^−1
Km (LOX2 [1]; read-out: Km app, substrate LeA, Michaelis Menten fit, apparent (purity and iron load not considered)): 26.3 ± 2 µM
Relative Activity (%) LOX2 (LOX2 [1]; 50 mM Tris-HCl pH 7.2): 100%
Maximum activity in pH profile (LOX3 [2]; LeA 9.8 µM, optimal pH): 50.5±2.8 nmol·s^−1·mg^−1
Relative Activity (%) LOX3 (LOX3 [2]; 50 mM Tris-HCl pH 7.2): 100%
Maximum activity in pH profile (LOX4 [3]; LeA 9.8 µM, optimal pH 7.2): 62.3 ± 0.4 nmol·s^−1·mg^−1
Km (LOX4 [3]; [11]): 5.8 µM
Vmax app (LOX4 [3]; substrate LeA, Michaelis Menten fit, apparent): 128 ± 18 nmol/s/mg and 128 nmol/s/mg
Relative Activity (%) LOX4 (LOX4 [3]; 50 mM Tris-HCl pH 7.2): 100%
Maximum activity in pH profile (LOX6 [4]; LeA 9.8 µM, optimal pH): 1.6±0.1 nmol·s^−1·mg^−1
Km (LOX6 [4]; [11]): 1.2 ± 0.4 µM
Relative Activity (%) LOX6 (LOX6 [4]; 50 mM Tris-HCl pH 7.2): 100%

N[C@@H](CCC(=O)N[C@@H](CS)C(=O)NCC(=O)O)C(=O)O [GSH]
Protective effect on LOX4 against 12-OPDA (LOX4 [7]; 12.2 µg LOX4): ~ 7.1%
Protective effect on LOX4 against 12-OPDA (LOX4 [7]; doubled LOX4 concentration): ~ 11.7%

CCCCC/C=C\C/C=C\CCCCCCCC(=O)O [LA, linoleic acid]
LOX2 activity with PUFA (relative) (LOX2 [9]): ~ 40%
Relative Activity (%) LOX2 (LOX2 [1]; 50 mM Tris-HCl pH 7.2): 79% and 79 ± 7%
inhibition at 118 µM (LOX3 [2]; [12]): > 50%
Relative Activity (%) LOX3 (LOX3 [2]; 50 mM Tris-HCl pH 7.2): 12 ± 1%
inhibition at 118 µM (LOX4 [3]; [12]): > 50%
Relative Activity (%) LOX4 (LOX4 [3]; 50 mM Tris-HCl pH 7.2): 11 ± 1%
inhibition at 29 µM (LOX6 [4]; [12]): > 50%
Relative Activity (%) LOX6 (LOX6 [4]; 50 mM Tris-HCl pH 7.2): 17 ± 1%

CCCCC/C=C\C/C=C\C/C=C\C/C=C\CCCC(=O)O [ARA, arachidonic acid]
LOX2 activity with PUFA (relative) (LOX2 [9]): ~ 15%
Relative Activity (%) LOX2 (LOX2 [1]; 50 mM Tris-HCl pH 7.2): 50% and 50 ± 4%
Relative Activity (%) LOX3 (LOX3 [2]; 50 mM Tris-HCl pH 7.2): 5 ± 1%
Relative Activity (%) LOX4 (LOX4 [3]; 50 mM Tris-HCl pH 7.2): 4 ± 1%
Relative Activity (%) LOX6 (LOX6 [4]; 50 mM Tris-HCl pH 7.2): 8 ± 3%
